# Data: publication PMC3189207, “DomPep—A General Method for Predicting Modular Domain-Mediated Protein-Protein Interactions” (PLoS ONE, 2011)
# Residues, ends and D or L forms follow the SMILES beside them.
# Legend:
# Scrib PDZ-1 domain = target: T1, Scrib PDZ-1 domain (Homo sapiens, UniProt Q14160); assay: In-solution fluorescence polarization binding of peptides to Scrib PDZ1; details: Kd value of 100 µM applied as binding cutoff, NB without definition, read-out: Kd (µM) PDZ1
# T1 construct: ROC curves of DomPep prediction for the three Scrib PDZ-1/2/3 domains
# T1 sequence (Q14160 728-815 limits assumed): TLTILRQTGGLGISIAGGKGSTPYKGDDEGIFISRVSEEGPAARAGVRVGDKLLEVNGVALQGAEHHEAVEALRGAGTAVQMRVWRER
# Scrib PDZ-2 domain = target: T2, Scrib PDZ-2 domain (Homo sapiens, UniProt Q14160); assay: In-solution fluorescence polarization binding of peptides to Scrib PDZ2; details: Kd value of 100 µM applied as binding cutoff, NB without definition, read-out: Kd (µM) PDZ2
# T2 construct: ROC curves of DomPep prediction for the three Scrib PDZ-1/2/3 domains
# T2 sequence (Q14160 862-950 limits assumed): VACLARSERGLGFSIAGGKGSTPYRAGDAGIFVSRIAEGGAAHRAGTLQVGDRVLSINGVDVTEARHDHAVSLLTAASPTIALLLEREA
# Scrib PDZ-3 domain = target: T3, Scrib PDZ-3 domain (Homo sapiens, UniProt Q14160); assay: In-solution fluorescence polarization binding of peptides to Scrib PDZ3; details: Kd value of 100 µM applied as binding cutoff, NB without definition
# T3 construct: ROC curves of DomPep prediction for the three Scrib PDZ-1/2/3 domains
# T3 sequence (Q14160 1004-1093 limits assumed): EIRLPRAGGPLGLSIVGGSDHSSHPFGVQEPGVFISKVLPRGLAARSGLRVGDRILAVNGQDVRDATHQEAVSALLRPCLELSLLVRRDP
# Source text: Because DomPep compared favorably to MDSM in identifying ligands for a PDZ domain included in the training set and to SPSSM in identifying binding peptides for an untrained PDZ domain, we next tested it whether it could reliably PPIs mediated by a PDZ domain on the genome scale. To this end, we employed three DomPep models to predict interactions between the Scrib PDZ domains and human proteins from the Swiss-Prot protein database. The three prediction models, which were generated for the mouse Scrib PDZ-1, PDZ-2 and PDZ-3 domains, were trained with 6, 5 and 30 positive peptide, respectively (Table S1). Searching the protein database with these models yielded a list of potential PDZ ligands. […] This experiment identified 14, 14, and 38 positives for the PDZ-1, -2, and -3 domains, respectively (Table 1). […] Importantly, we identified four peptides that were not included in the training set as physiological binders to the Scrib PDZ domains. The corresponding proteins, namely APC, LPP, VANGL2 and ZO2, were previously reported to interact with Scrib in vivo via its PDZ domains, [36], [37], [38], [39].
# Figure 4 Application of DomPep to the prediction of PDZ-binding ligands. ROC curves of DomPep prediction for the three Scrib PDZ-1/2/3 domains using 56 peptides selected from the human protein database as the test set. The respective affinities of the three domains for the 56 peptides were measured by fluorescence polarization (Table 1).
Kd (Scrib PDZ-1 domain),Kd (Scrib PDZ-2 domain),Kd (Scrib PDZ-3 domain),Compound
> 100 µM,> 100 µM,> 100 µM,CC[C@H](C)[C@H](NC(=O)[C@@H]1CCCN1C(=O)[C@@H](NC(=O)CNC(=O)[C@@H](NC(=O)[C@@H](NC(=O)[C@H](CC(N)=O)NC(=O)[C@@H](NC(=O)[C@H](CCC(N)=O)NC(=O)[C@@H](N)CC(=O)O)C(C)C)[C@@H](C)O)C(C)C)[C@@H](C)CC)C(=O)O [EPHA2] (H-DQVNTVGIPI-OH; N-terminus and C-terminus assumed)
> 100 µM,> 100 µM,> 100 µM,CC[C@H](C)[C@H](NC(=O)[C@@H](NC(=O)[C@H](Cc1ccccc1)NC(=O)[C@H](CCC(=O)O)NC(=O)[C@@H]1CCCN1C(=O)[C@H](CC(N)=O)NC(=O)[C@@H](NC(=O)[C@@H](N)Cc1ccc(O)cc1)[C@@H](C)O)C(C)C)C(=O)N[C@@H](CC(N)=O)C(=O)N[C@H](C(=O)O)C(C)C [PRKCB1] (H-YTNPEFVINV-OH; N-terminus and C-terminus assumed)
> 100 µM,> 100 µM,> 100 µM,CC(C)C[C@H](NC(=O)[C@H](CCC(=O)O)NC(=O)[C@H](CCCNC(=N)N)NC(=O)[C@H](Cc1c[nH]c2ccccc12)NC(=O)[C@@H]1CCCN1C(=O)[C@@H]1CCCN1C(=O)[C@H](CC(=O)O)NC(=O)CNC(=O)[C@H](CCCNC(=N)N)NC(=O)[C@@H]1CCCN1)C(=O)O [C19orf57] (H-PRGDPPWREL-OH; N-terminus and C-terminus assumed)
77 µM,> 100 µM,67.8 µM,CC(C)C[C@H](NC(=O)[C@H](CS)NC(=O)[C@H](CC(=O)O)NC(=O)[C@@H](NC(=O)[C@H](CC(N)=O)NC(=O)[C@H](CCCNC(=N)N)NC(=O)[C@H](CC(C)C)NC(=O)CNC(=O)CNC(=O)[C@@H](N)CC(=O)O)C(C)C)C(=O)O [TBK1] (H-DGGLRNVDCL-OH)
> 100 µM,> 100 µM,> 100 µM,CSCC[C@H](NC(=O)[C@H](CC(C)C)NC(=O)[C@@H](NC(=O)[C@H](CS)NC(=O)[C@H](CCCCN)NC(=O)CNC(=O)[C@H](CCCCN)NC(=O)[C@@H](NC(=O)[C@H](CCCNC(=N)N)NC(=O)[C@@H](N)CC(=O)O)C(C)C)[C@@H](C)O)C(=O)O [DIRAS1] (H-DRVKGKCTLM-OH; N-terminus and C-terminus assumed)
> 100 µM,> 100 µM,> 100 µM,CC[C@H](C)[C@H](NC(=O)[C@H](C)NC(=O)[C@H](CO)NC(=O)[C@H](CC(C)C)NC(=O)[C@H](CC(C)C)NC(=O)[C@@H](N)CCC(=O)O)C(=O)N[C@@H](CCC(=O)O)C(=O)N[C@@H](CCCCN)C(=O)N[C@@H](CC(C)C)C(=O)N[C@@H](CC(C)C)C(=O)O [UBXD1] (H-ELLSAIEKLL-OH; N-terminus and C-terminus assumed)
> 100 µM,> 100 µM,> 100 µM,CC[C@H](C)[C@H](NC(=O)CNC(=O)[C@@H](NC(=O)CNC(=O)[C@H](Cc1c[nH]cn1)NC(=O)[C@H](CC(C)C)NC(=O)[C@H](Cc1c[nH]cn1)NC(=O)[C@@H](N)CC(C)C)[C@@H](C)O)C(=O)N[C@@H](CCC(N)=O)C(=O)N[C@H](C(=O)O)C(C)C [EPHA7] (H-LHLHGTGIQV-OH; N-terminus and C-terminus assumed)
> 100 µM,> 100 µM,> 100 µM,CC(C)C[C@H](NC(=O)[C@H](CC(C)C)NC(=O)[C@@H](NC(=O)CNC(=O)[C@H](Cc1ccc(O)cc1)NC(=O)[C@H](CC(C)C)NC(=O)[C@H](CCC(N)=O)NC(=O)[C@H](C)NC(=O)[C@@H](N)CCCCN)[C@@H](C)O)C(=O)N[C@@H](CC(N)=O)C(=O)O [BEGAIN] (H-KAQLYGTLLN-OH; N-terminus and C-terminus assumed)
> 100 µM,> 100 µM,186 µM,CC(C)[C@H](NC(=O)[C@H](CCCNC(=N)N)NC(=O)[C@@H](N)CC(=O)O)C(=O)N[C@@H](C)C(=O)N[C@@H](CCC(=O)O)C(=O)N[C@@H](CCC(N)=O)C(=O)N[C@@H](CC(=O)O)C(=O)N[C@H](C(=O)N[C@@H](CCC(N)=O)C(=O)N[C@@H](C)C(=O)O)[C@@H](C)O [MPG] (H-DRVAEQDTQA-OH)
> 100 µM,> 100 µM,> 100 µM,CC[C@H](C)[C@H](NC(=O)[C@@H]1CCCN1C(=O)[C@@H]1CCCN1C(=O)[C@@H](NC(=O)[C@H](CO)NC(=O)[C@H](Cc1ccc(O)cc1)NC(=O)[C@H](CC(C)C)NC(=O)[C@@H](NC(=O)[C@@H](NC(=O)[C@@H](N)CO)C(C)C)C(C)C)[C@@H](C)O)C(=O)O [FLT1] (H-SVVLYSTPPI-OH; N-terminus and C-terminus assumed)
129 µM,> 100 µM,> 100 µM,CC(C)[C@H](NC(=O)[C@@H]1CCCN1C(=O)[C@@H](NC(=O)[C@@H]1CCCN1C(=O)CNC(=O)[C@H](CC(N)=O)NC(=O)[C@H](CCCCN)NC(=O)[C@H](CO)NC(=O)[C@H](CCC(N)=O)NC(=O)[C@@H](N)[C@@H](C)O)C(C)C)C(=O)O [EPHA3] (H-TQSKNGPVPV-OH)
